Test results from patent EP0229313A2, “Compound related to antibiotic TAN-749 and their production” (priority 1985, dated 1987).
≈ marks a conversion by molar mass, not a printed value. Where two headings read alike, the source gives them in different places.

Assays:
[1] = test system: Pseudomonas aeruginosa P-9; assay: Therapeutic effects on infectious diseases in mice (Table 6); assay type: in vivo; settings: P9, sc; mice infected with Pseudomonas aeruginosa P-9; route Subcutaneous; dihydrochlorides
[2] = test system: Staphylococcus aureus TN 2684; assay: MIC against clinically isolated Staphylococcus aureus strains (Table 5); assay type: cell-based; settings: TN2684, strain TN 2684, resistance type Macrolide, agar dilution method, Mueller Hinton medium, inoculum 10^6CFU/mℓ, read-out: Minimal Inhibitory Concentration
[3] = test system: Staphylococcus aureus TN 2648; assay: as above; assay type: cell-based; settings: TN2648, strain TN 2648, resistance type Methicillin, agar dilution method, Mueller Hinton medium, inoculum 10^6CFU/mℓ, read-out: Minimal Inhibitory Concentration
[4] = test system: Staphylococcus aureus 308A-1; assay: Therapeutic effects on infectious diseases in mice (Table 6); assay type: in vivo; settings: 308A1, po, mice infected with Staphylococcus aureus 308A-1, dihydrochlorides
[5] = test system: Staphylococcus aureus TN 2613; assay: MIC against clinically isolated Staphylococcus aureus strains (Table 5); assay type: cell-based; settings: TN2613, strain TN 2613, resistance type Methicillin, agar dilution method, Mueller Hinton medium, inoculum 10^6CFU/mℓ, read-out: Minimal Inhibitory Concentration
[6] = test system: Staphylococcus aureus FDA 209P; assay: Antibacterial spectrum, MIC on agar (Table 3); assay type: cell-based; settings: Bacto-Antibiotic Medium 3 + yeast extract + agar, inoculum approx. 10^6 CFU/mℓ, dihydrochlorides
Excerpt: (§1) Tables 3 and 4 show the antibacterial spectra of TAN-749A, B, C, and D (dihydrochlorides) against various microbes.

[7] = test system: Citrobacter freundii IFO 12681; assay: Antibacterial spectrum, MIC on agar (Table 3); assay type: cell-based; settings: Bacto-Antibiotic Medium 3 + yeast extract + agar, inoculum approx. 10^6 CFU/mℓ, dihydrochlorides
Excerpt: as §1

[8] = test system: Proteus vulgaris IFO 3988; assay: Antibacterial spectrum, MIC on agar (Table 3); assay type: cell-based; settings: IFO3988, Bacto-Antibiotic Medium 3 + yeast extract + agar, inoculum approx. 10^6 CFU/mℓ, dihydrochlorides, read-out: Minimal Inhibitory Concentration
Excerpt: as §1

[9] = test system: Klebsiella pneumoniae IFO 3317; assay: Antibacterial spectrum, MIC on agar (Table 3); assay type: cell-based; settings: IFO3317, Bacto-Antibiotic Medium 3 + yeast extract + agar, inoculum approx. 10^6 CFU/mℓ, dihydrochlorides, read-out: Minimal Inhibitory Concentration
Excerpt: as §1

[10] = test system: Escherichia coli NIHJ JC2; assay: Antibacterial spectrum, MIC on agar (Table 3); assay type: cell-based; settings: NIHJJC2, Bacto-Antibiotic Medium 3 + yeast extract + agar, inoculum approx. 10^6 CFU/mℓ, dihydrochlorides, read-out: Minimal Inhibitory Concentration
Excerpt: as §1

[11] = test system: Pseudomonas aeruginosa IFO 3080; assay: Antibacterial spectrum, MIC on agar (Table 3); assay type: cell-based; settings: Bacto-Antibiotic Medium 3 + yeast extract + agar, inoculum approx. 10^6 CFU/mℓ, dihydrochlorides
Excerpt: as §1

[12] = test system: Proteus morganii IFO 3168; assay: Antibacterial spectrum, MIC on agar (Table 3); assay type: cell-based; settings: Morganella morganii, IFO3168, Bacto-Antibiotic Medium 3 + yeast extract + agar, inoculum approx. 10^6 CFU/mℓ, dihydrochlorides, read-out: Minimal Inhibitory Concentration
Excerpt: as §1

[13] = test system: Staphylococcus aureus 1840 S; assay: MIC against clinically isolated Staphylococcus aureus strains (Table 5); assay type: cell-based; settings: strain 1840 S, resistance type None, agar dilution method, Mueller Hinton medium, inoculum 10^6CFU/mℓ, read-out: Minimal Inhibitory Concentration
Escherichia coli 0-111 = assay: Therapeutic effects on infectious diseases in mice (Table 6); assay type: in vivo; settings: mice infected with Escherichia coli 0-111, route Subcutaneous, dihydrochlorides
[14] = test system: Staphylococcus aureus TN 2688; assay: MIC against clinically isolated Staphylococcus aureus strains (Table 5); assay type: cell-based; settings: TN2688, strain TN 2688, resistance type Macrolide, agar dilution method, Mueller Hinton medium, inoculum 10^6CFU/mℓ, read-out: Minimal Inhibitory Concentration
[15] = test system: Staphylococcus aureus 1840-2; assay: as above; assay type: cell-based; settings: 18402, strain 1840-2, resistance type Penicillin G, agar dilution method, Mueller Hinton medium, inoculum 10^6CFU/mℓ, read-out: Minimal Inhibitory Concentration
[16] = Acute toxicities on mice (Table 7); settings: mouse, in vivo, dihydrochlorides
[17] = test system: Staphylococcus aureus TN 2687; assay: MIC against clinically isolated Staphylococcus aureus strains (Table 5); assay type: cell-based; settings: TN2687, strain TN 2687, resistance type Macrolide, agar dilution method, Mueller Hinton medium, inoculum 10^6CFU/mℓ, read-out: Minimal Inhibitory Concentration
Escherichia coli T7 [18] = assay: Antibacterial spectrum, MIC by agar dilution method (Table 4); assay type: cell-based; settings: inoculum 10^8 CFU/mℓ, dihydrochlorides
Excerpt: as §1

[19] = test system: Pseudomonas aeruginosa P9; assay: as above; assay type: cell-based; settings: medium B-TSA (10% horse serum/TSA), inoculum 10^8 CFU/mℓ, dihydrochlorides, read-out: Minimal Inhibitory Concentration
Excerpt: as §1

Escherichia coli T7 [20] = assay: Therapeutic effects on infectious diseases in mice (Table 6); assay type: in vivo; settings: sc; mice infected with Escherichia coli T7; route Subcutaneous; dihydrochlorides
[21] = test system: Acinetobacter calcoaceticus IFO 13006; assay: Antibacterial spectrum, MIC on agar (Table 3); assay type: cell-based; settings: Bacto-Antibiotic Medium 3 + yeast extract + agar, inoculum approx. 10^6 CFU/mℓ, dihydrochlorides, listed as C
Excerpt: as §1

[22] = test system: Staphylococcus aureus 308A-1; assay: Antibacterial spectrum, MIC by agar dilution method (Table 4); assay type: cell-based; settings: medium TSA, inoculum 10^8 CFU/mℓ, dihydrochlorides, listed as C
Excerpt: as §1

[23] = test system: Streptococcus pyogenes E-14; assay: as above; assay type: cell-based; settings: medium B-TSA (10% horse serum/TSA), inoculum 10^8 CFU/mℓ, dihydrochlorides, listed as C
Excerpt: as §1

[24] = test system: Staphylococcus aureus FDA209P; assay: as above; assay type: cell-based; settings: medium B-TSA (10% horse serum/TSA), inoculum 10^8 CFU/mℓ, dihydrochlorides, listed as C
Excerpt: as §1

**Q.** With `CC=CC=CC(=O)NCC(O)CC(N)CC(=O)NCCC(=N)N` (stereo not shown) [TAN-749A] as the molecule, how does the ED50 [1] read?
**A.** 31 mg/kg

**Q.** What about the MIC [2] of the same molecule?
**A.** 6.25 µg/mL (≈ 19.2 µM)

**Q.** What about the MIC [3] of the same molecule?
**A.** 3.13 µg/mL (≈ 9.62 µM)

**Q.** And the ED50 [4]?
**A.** 17.7 mg/kg

**Q.** What about the MIC [5] of the same molecule?
**A.** 6.25 µg/mL (≈ 19.2 µM)

**Q.** What about the MIC ([6]; Staphylococcus aureus, FDA209P, read-out: Minimal Inhibitory Concentration) of the same molecule?
**A.** 50 µg/mL

**Q.** What about the MIC ([7]; Citrobacter freundii, IFO12681, Citrobacter freundii IFO 12681, read-out: Minimal Inhibitory Concentration) of the same molecule?
**A.** ≥ 100 µg/mL

**Q.** And the MIC [8]?
**A.** 100 µg/mL

**Q.** What about the MIC [9] of the same molecule?
**A.** > 100 µg/mL

**Q.** And the MIC [10]?
**A.** > 100 µg/mL

**Q.** And the MIC ([11]; Pseudomonas aeruginosa, IFO3080, Pseudomonas aeruginosa IFO 3080, read-out: Minimal Inhibitory Concentration)?
**A.** 25 µg/mL

**Q.** And the MIC [12]?
**A.** > 100 µg/mL

**Q.** What about the MIC [13] of the same molecule?
**A.** 12.5 µg/mL (≈ 38.4 µM)

**Q.** What about the ED50 (Escherichia coli 0-111; Escherichia coli, 0111, sc, read-out: ED50) of the same molecule?
**A.** 67.2 mg/kg

**Q.** What about the MIC [14] of the same molecule?
**A.** 6.25 µg/mL (≈ 19.2 µM)

**Q.** What about the MIC [15] of the same molecule?
**A.** 12.5 µg/mL (≈ 38.4 µM)

**Q.** What about the LD50 ([16]; route Oral) of the same molecule?
**A.** 2000 to 4000 mg/kg

**Q.** What about the LD50 ([16]; sc, route Subcutaneous) of the same molecule?
**A.** ~500 mg/kg

**Q.** And the MIC [17]?
**A.** 6.25 µg/mL (≈ 19.2 µM)

**Q.** What about the MIC (Escherichia coli T7 [18]; Escherichia coli, T7, Escherichia coli T7, medium TSA, read-out: Minimal Inhibitory Concentration) of the same molecule?
**A.** 50 µg/mL (≈ 154 µM)

**Q.** And the MIC [19]?
**A.** 100 µg/mL (≈ 307 µM)

**Q.** What about the ED50 (Escherichia coli T7 [20]) of the same molecule?
**A.** 50.8 mg/kg

**Q.** For `CC=CC=CC(=O)NCC(O)CC(N)CC(=O)NCCC(=N)N` (stereo not shown) [TAN-749C], which “Minimal Inhibitory Concentration” value ([6]; listed as C) is on record?
**A.** >100 µg/mL

**Q.** And the “Minimal Inhibitory Concentration” value ([7]; Citrobacter freundii IFO 12681, listed as C)?
**A.** >100 µg/mL

**Q.** And the “Minimal Inhibitory Concentration” value [21]?
**A.** >100 µg/mL

**Q.** What about the “Minimal Inhibitory Concentration” value ([11]; Pseudomonas aeruginosa IFO 3080, listed as C) of the same molecule?
**A.** 50 µg/mL

**Q.** What about the ED50 (Escherichia coli 0-111; listed as C) of the same molecule?
**A.** 50 mg/kg

**Q.** And the “Minimal Inhibitory Concentration” value [22]?
**A.** >100 µg/mL

**Q.** What about the “Minimal Inhibitory Concentration” value (Escherichia coli T7 [18]; Escherichia coli T7, medium TSA, listed as C) of the same molecule?
**A.** >100 µg/mL

**Q.** What about the “Minimal Inhibitory Concentration” value [23] of the same molecule?
**A.** 100 µg/mL

**Q.** And the “Minimal Inhibitory Concentration” value [24]?
**A.** >100 µg/mL
